Reference: BindingDB's records for doi:10.7270/Q2ZC817P (The Scripps Research Institute Molecular Screening Center, 2007)
Counter-ions that a name gives are not always drawn.

Target: Sphingosine 1-phosphate receptor 1 (Homo sapiens, UniProt P21453)
Assay: potentiators of S1P1 agonist response, dose response, cell-based, potentiator mode, 60K MLSMR set (AID 466)
Conditions: not given

Sphingosine 1-phosphate receptor 1, sequence (P21453 whole entry): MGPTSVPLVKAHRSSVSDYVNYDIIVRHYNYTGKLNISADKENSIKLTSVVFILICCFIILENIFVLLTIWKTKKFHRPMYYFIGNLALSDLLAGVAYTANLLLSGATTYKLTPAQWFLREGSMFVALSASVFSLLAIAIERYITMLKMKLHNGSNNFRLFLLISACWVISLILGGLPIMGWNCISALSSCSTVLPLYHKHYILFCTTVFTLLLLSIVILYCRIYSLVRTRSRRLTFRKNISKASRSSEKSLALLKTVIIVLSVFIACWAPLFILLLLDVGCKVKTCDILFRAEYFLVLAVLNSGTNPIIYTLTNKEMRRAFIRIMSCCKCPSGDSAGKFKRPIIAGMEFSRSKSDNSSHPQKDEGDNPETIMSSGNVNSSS

EC50 [µM] | Compound
2.23 | Cc1cc(C(=O)CSc2nnc(-c3ccncc3)n2-c2ccccc2)c(C)n1C [2-[(4-phenyl-5-pyridin-4-yl-1,2,4-triazol-3-yl)sulfanyl]-1-(1,2,5-trimethylpyrrol-3-yl)ethanone]
5.63 | Cc1cc(C)n2nc(SCC(=O)c3cc(C)n(-c4cc(C)on4)c3C)nc2n1 [1-[2,5-dimethyl-1-(5-methyl-1,2-oxazol-3-yl)pyrrol-3-yl]-2-[(5,7-dimethyl-[1,2,4]triazolo[1,5-a]pyrimidin-2-yl)sulfanyl]ethanone]
> 30 | COc1ccc(S(=O)(=O)Cc2ccc(C(=O)N3CCN(c4cccc(C)c4C)CC3)o2)cc1 [MLS000120226]
8.9 | Nc1nonc1C(=O)NCCNCc1cc(Br)ccc1OCc1ccccc1F [4-amino-N-[2-[[5-bromo-2-(2-fluorobenzyl)oxy-benzyl]amino]ethyl]furazan-3-carboxamide;hydrochloride]
6.51 | Cc1ccccc1OCCCCc1c(C)n[nH]c1C [SMR000103095]
1.59 | c1ccc(CSc2nnc(-c3c[nH]c4ccccc34)o2)cc1
> 10 | CC1CCCC(C)N1C(=O)CN1CCN(c2nc(-c3ccc(F)cc3)cs2)CC1 (centres undefined) [1-(2,6-Dimethyl-piperidin-1-yl)-2-{4-[4-(4-fluoro-phenyl)-thiazol-2-yl]-piperazin-1-yl}-ethanone]
> 95 | COC(=O)c1ccc(OCC(O)Cn2nnc3ccccc32)cc1 (centres undefined) [4-[3-(1-benzotriazolyl)-2-hydroxypropoxy]benzoic acid methyl ester]
6.29 | Cc1cc(N2CCN(c3nc4ccccc4s3)CC2)n2ncnc2n1 [2-[4-(5-methyl-[1,2,4]triazolo[1,5-a]pyrimidin-7-yl)-1-piperazinyl]-1,3-benzothiazole]
6.17 | COc1ccc(-c2noc(-c3ccccc3F)n2)cc1 [5-(2-fluorophenyl)-3-(4-methoxyphenyl)-1,2,4-oxadiazole]
31.1 | COc1ccc(C(=O)C(CN2CCOCC2)c2ccccc2)cc1F (centres undefined) [1-(3-Fluoro-4-methoxy-phenyl)-3-morpholin-4-yl-2-phenyl-propan-1-one]
> 95 | O=C(C1CCCN1S(=O)(=O)c1cccc2cccnc12)N1CCN(c2ccccc2)CC1 (centres undefined) [(4-phenyl-1-piperazinyl)-[1-(8-quinolinylsulfonyl)-2-pyrrolidinyl]methanone]
9.88 | CC(C)(C)OC(=O)N[C@@H](Cc1ccccc1)c1nnc(S(=O)(=O)Cc2cccc(F)c2)o1 [tert-butyl N-[(1S)-1-[5-[(3-fluorophenyl)methylsulfonyl]-1,3,4-oxadiazol-2-yl]-2-phenylethyl]carbamate]
6.86 | COC(=O)c1c(C)n(-c2ccc(OC)cc2)c2ccc(O)cc12 [5-hydroxy-1-(4-methoxyphenyl)-2-methyl-3-indolecarboxylic acid methyl ester]
7.43 | O=S(=O)(Nc1ccc2c(c1)OCCO2)c1ccc2oc3ccccc3c2c1 [MLS000051884]
3.72 | COc1ccc(CCNc2c(C)c(C)nc3ncnn23)cc1 [(5,6-Dimethyl-[1,2,4]triazolo[1,5-a]pyrimidin-7-yl)-[2-(4-methoxy-phenyl)-ethyl]-amine]
6.13 | Cc1cc(C(=O)CSc2nnc(-c3ccccc3)n2-c2ccccc2)c(C)n1-c1nnc[nH]1
> 30 | COc1cc2c(cc1OC)C(C)N(C(=O)c1cc3ccccc3o1)CC2 (centres undefined) [1-benzofuran-2-yl-(6,7-dimethoxy-1-methyl-3,4-dihydro-1H-isoquinolin-2-yl)methanone]
4.41 | Cc1cccc(N2CCN(C(=O)CSCc3c(C)noc3C)CC2)c1C [2-[(3,5-dimethyl-1,2-oxazol-4-yl)methylsulfanyl]-1-[4-(2,3-dimethylphenyl)piperazin-1-yl]ethanone]
> 30 | Cc1ccc2[nH]c3c(N4CCN(Cc5ccc6c(c5)OCO6)CC4)ncnc3c2c1
5.65 | Cc1cc(C(=O)N2CCN(C(c3ccccc3)c3ccccc3)CC2)on1 [(4-benzhydrylpiperazin-1-yl)-(3-methyl-1,2-oxazol-5-yl)methanone]
3.37 | CN(C)c1ccnc2sc3c(=O)n(Cc4ccccc4)cnc3c12 [3-Benzyl-9-dimethylamino-3H-pyrido[3',2':4,5]thieno[3,2-d]pyrimidin-4-one]
> 30 | CCN(CC)C(=O)C1CCN(S(=O)(=O)c2ccc3oc4ccccc4c3c2)CC1 [1-(2-dibenzofuranylsulfonyl)-N,N-diethyl-4-piperidinecarboxamide]

Same assay, conditions: inactive by the depositor's call

EC50 [µM] | Compound
13.6 | Nc1c(C(=O)NC2CCCC2)sc2nc(-c3cccs3)ccc12 [3-Amino-6-thiophen-2-yl-thieno[2,3-b]pyridine-2-carboxylic acid cyclopentylamide]
12.7 | CC(C)(C)NC(=O)CSc1ncnc2c1nnn2Cc1ccccc1Cl [MLS000034488]
12.5 | Cc1n[nH]c(C)c1N1C(=O)c2cccc3c(N4CCCCCC4)ccc(c23)C1=O
14.6 | CC1CCN(S(=O)(=O)c2ccc3c(c2)oc(=O)n3CC(=O)NCc2ccc3c(c2)OCO3)CC1 [2-[2-keto-6-(4-methylpiperidino)sulfonyl-1,3-benzoxazol-3-yl]-N-piperonyl-acetamide]
10.1 | Cc1ccccc1CS(=O)(=O)c1nnc([C@H](CC(C)C)NC(=O)OC(C)(C)C)o1 [SMR000044673]
21.7 | Nn1c(Nc2ccccc2)nc2sc3c(c2c1=O)CCC3 [2-amino-3-anilino-7,8-dihydro-6H-cyclopenta[2,3]thieno[2,4-b]pyrimidin-1-one]
20.1 | Oc1c(C(c2ccco2)N2CCN(C(c3ccccc3)c3ccccc3)CC2)sc2ncnn12 (centres undefined) [5-[(4-benzhydrylpiperazin-1-yl)-(furan-2-yl)methyl]-[1,3]thiazolo[3,2-b][1,2,4]triazol-6-ol]
14 | CC1CC(C)(C)Nc2ccc(OC(=O)c3ccco3)cc21 (centres undefined) [(2,2,4-trimethyl-3,4-dihydro-1H-quinolin-6-yl) furan-2-carboxylate]
13.8 | O=C(CSc1nnc(-c2ccc(Cl)cc2)n1Cc1ccco1)c1cccs1 [2-[[5-(4-chlorophenyl)-4-(2-furanylmethyl)-1,2,4-triazol-3-yl]thio]-1-thiophen-2-ylethanone]
23.1 | CC/N=c1\sc(C(=O)NCCc2ccccc2)cc(=O)n1CC [3-Ethyl-2-[(Z)-ethylimino]-4-oxo-3,4-dihydro-2H-[1,3]thiazine-6-carboxylic acid phenethyl-amide]
12.1 | CCCC(=O)c1ccc(N2CCN(C(=O)c3ccccc3Br)CC2)c(F)c1 [1-[4-[4-(2-bromobenzoyl)piperazin-1-yl]-3-fluorophenyl]butan-1-one]
13.2 | CC(C)OCCCNc1ncnc2c1[nH]c1ccccc12 [MLS000041327]
14.8 | CCOc1nc(-c2ccccc2)ccc1-c1noc(-c2ccco2)n1 [2-Ethoxy-3-(5-furan-2-yl-[1,2,4]oxadiazol-3-yl)-6-phenyl-pyridine]
17.9 | COc1cccc(-c2csc(N3CCN(CC(=O)Nc4ccc5c(c4)OCO5)CC3)n2)c1 [MLS000070935]
20.1 | CCOC(=O)N1CCC(NC(=O)C2CCCN(Cc3nc(-c4cccc(Cl)c4)oc3C)C2)CC1 (centres undefined) [4-[[1-[[2-(3-chlorophenyl)-5-methyl-oxazol-4-yl]methyl]nipecotoyl]amino]piperidine-1-carboxylic acid ethyl ester]

Compound | EC50 [µM]
CCN(CC)C(=O)Oc1ccc2c(=O)c(-c3ccccc3)coc2c1 [(4-oxidanylidene-3-phenyl-chromen-7-yl) N,N-diethylcarbamate] | 27.2
